How the values were obtained:
Type in all cases: in vivo
[1] = tested on: larvae of the banded cucumber beetle (Diabrotica balteata); assay: Diabrotica balteata spray test; conditions: 168 h, after 7 days, wheat seeds, read-out: efficacy (seedling growth); for pest or weed control at 160 µg/disc, 500 g/ha: 500 g/ha (=160 μg/well); for pest or weed control at 32 µg/disc, 100 g/ha: 100 g/ha (=32 μg/well)
Procedure, shortened: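 Germinated wheat seeds on agar (5 per well) were sprayed with compound formulated in acetone/DMF and diluted in water with 1000 ppm emulsifier. Each unit was then infested with 10–20 larvae. Efficacy % was scored after 7 days as seedling growth relative to an untreated, uninfested control (100% = normal growth).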

[2] = tested on: larvae of the southern green stink bug (Nezara viridula); assay: Nezara viridula spray test; conditions: 96 h, after 4 days, barley plants
Procedure, shortened: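 Compound in acetone/DMF was diluted in water with 1000 ppm alkylarylpolyglycol ether emulsifier. Barley plants were sprayed with it, then infested with Nezara viridula larvae. Mortality % was scored after 4 days (100% = all killed).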

[3] = tested on: brown planthopper (Nilaparvata lugens); assay: Nilaparvata lugens spray test; conditions: 96 h, after 4 days, rice plants
Description: Nilaparvata lugens—Spray Test • Solvent: 78.0 parts by weight of acetone • 1.5 parts by weight of dimethylformamide • Emulsifier: alkylarylpolyglycol ether
To produce a suitable preparation of active compound, 1 part by weight of active compound is mixed with the stated amount of solvents and is diluted with water, containing an emulsifier concentration of 1000 ppm, to the desired concentration. Further test concentrations are prepared by dilution with emulsifier containing water.
Rice plants (Oryza sativa) are sprayed with a preparation of the active ingredient of the desired concentration and the plants are infested with the brown planthopper (Nilaparvata lugens).
After 4 days mortality in % is determined. 100% means all planthoppers have been killed and 0% means none of the planthoppers have been killed.

[4] = tested on: adult engorged female ticks (Rhipicephalus microplus); assay: Rhipicephalus (Boophilus) microplus injection test; conditions: 168 h, egg deposition monitored after 7 days, read-out: efficacy (infertile eggs); for pest or weed control at 4 µg/tick: 4 μg/tick injected; for pest or weed control at 20 µg/tick: 20 μg/tick injected
Procedure, shortened: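 Five adult engorged female ticks each injected with 1 μL of DMSO compound solution into the abdomen, then kept in a climate chamber. Fertile egg deposition assessed after 7 days, with hatching followed to about 42 days; efficacy 100% means all eggs infertile, 0% all fertile.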

[5] = tested on: fall armyworm larvae (Spodoptera frugiperda); assay: Spodoptera frugiperda spray test; conditions: in Zea mays, 168 h
Procedure, shortened: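 Maize leaf sections were sprayed with compound in acetone/dimethylformamide diluted in water with 1000 ppm emulsifier, dried, then infested with larvae. Mortality in % was scored after 7 days, 100% meaning all caterpillars killed.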

[6] = tested on: adult unfed cat fleas (Ctenocephalides felis); assay: Ctenocephalides felis oral test; conditions: 48 h, 100 ppm in cattle blood, after 2 days
Description: Ctenocephalides felis—Oral Test
• Solvent: dimethyl sulfoxide
To produce a suitable preparation of active compound, 10 mg of active compound are dissolved in 0.5 mL solvent, and the concentrate is diluted with cattle blood to the desired concentration.
Approximately 20 adult unfed cat fleas (Ctenocephalides felts) are placed in flea chambers. The blood chamber, sealed with parafilm on the bottom, are filled with cattle blood supplied with compound solution and placed on the gauze covered top of the flea chamber, so that the fleas are able to suck the blood. The blood chamber is heated to 37° C. whereas the flea chamber is kept at room temperature.
After 2 days mortality in % is determined. 100% means all the fleas have been killed; 0% means none of the fleas have been killed.

[7] = tested on: adult cat fleas (Ctenocephalides felis); assay: Ctenocephalides felis in-vitro contact test, adult cat flea; conditions: 5 μg/cm^2 (=500 g/ha), after 48 hours, read-out: efficacy (fleas dead or moribund)
Description: Ctenocephalides felis—In-Vitro Contact Tests Adult Cat Flea
9 mg compound is solved in 1 mL acetone and diluted with acetone to the desired concentration. 250 μL of the test solution is filled in 25 mL glass test tubes and homogeneously distributed on the inner walls by rotation and tilting on a shaking device (2 h at 30 rpm). With a compound concentration of 900 ppm, an inner surface of 44.7 cm^2 and a homogeneous distribution, a dose of 5 μg/cm^2 is achieved.
After the solvent has evaporated, each test tube is filled with 5-10 adult cat fleas (Ctenocephalides felis), closed with a perforated lid and incubated in a lying position at room temperature and relative humidity. After 48 hours efficacy is determined. The fleas are patted on the ground of the tubes and are incubated on a heating plate at 45-50° C. for at most 5 minutes Immotile or uncoordinated moving fleas, which are not able to escape the heat by climbing upwards, are marked as dead or moribund.
An efficacy of 100% means all fleas are dead or moribund; 0% means no fleas are dead or moribund.

[8] = tested on: Rhipicephalus (Boophilus) microplus larvae (strain Parkhurst, resistant against synthetic pyrethroids); assay: Rhipicephalus (Boophilus) microplus in-vitro contact test, larval cattle tick; conditions: 5 μg/cm^2 (=500 g/ha), after 48 hours, read-out: efficacy (larvae dead or moribund)
Procedure, shortened: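 Acetone solutions coated onto glass tube walls, 900 ppm giving 5 μg/cm^2; 20–50 larvae per tube after solvent evaporation. Incubated 48 h at 27 °C, 85% relative humidity; efficacy from negative geotaxis, 100% meaning all larvae dead or moribund.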

[9] = tested on: southern root-knot nematode (Meloidogyne incognita); assay: Meloidogyne incognita test; conditions: 20 ppm, after 14 days
Description: Meloidogyne incognita—Test
• Solvent: 125.0 parts by weight of acetone
To produce a suitable preparation of active compound, 1 part by weight of active compound is mixed with the stated amount of solvent, and the concentrate is diluted with water to the desired concentration. Vessels are filled with sand, a solution of the active ingredient, a suspension containing eggs and larvae of the southern root-knot nematode (Meloidogyne incognita) and salad seeds. The salad seeds germinate and the seedlings grow. Galls develop in the roots.
After 14 days the nematicidal activity is determined on the basis of the percentage of gall formation. 100% means no galls were found and 0% means the number of galls found on the roots of the treated plants was equal to that in untreated control plants.

[10] = tested on: adult flies Musca domestica strain WHO-N; assay: Musca domestica test (MUSCDO surface treatment & contact assay); conditions: surface concentration 20 mg/m^2, 30 minutes exposure, 24 hours after contact, read-out: efficacy (mortality)
Description: Musca domestica Test (MUSCDO Surface Treatment & Contact Assay)
• Solvent: Aceton+2000 ppm rapeseed oil methyl ester (RME)
In order to produce a sufficient, active ingredient containing solution it is necessary to solve the test compound in the solvent-mix (acetone at 2 mg/ml/RME 2000 ppm). This solution is pipetted onto a glazed tile and after evaporation of the acetone, adult flies of the species Musca domestica strain WHO-N are placed onto the dried surface. The exposure time is 30 minutes.
Mortality in percent (%) is determined 24 hours after contact of the insects to the treated surface. 100% mortality means that all tested insects are dead, whereas 0% means that no insect died.

[11] = tested on: green peach aphid (Myzus persicae); assay: Myzus persicae spray test; conditions: foliar, 120 h, after 5 days, Chinese cabbage leaf disks
Procedure, shortened: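 Chinese cabbage leaf disks infested with all aphid instars were sprayed with compound in acetone/DMF, diluted in water with 1000 ppm alkylarylpolyglycol ether emulsifier. Mortality (%) scored after 5 days, 100% meaning all aphids killed.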

SMILES | mortality at 100 g/ha [2] [%] | pest or weed control at 4 µg/tick [4] [%] | pest or weed control at 20 µg/tick [4] [%] | pest or weed control at 5 µg/cm2, 5 µg/cm2 [8] [%] | nematicidal activity (gall formation) [9] [%] | mortality at 100 g/ha [5] [%] | pest or weed control at 32 µg/disc, 100 g/ha [1] [%] | mortality at 500 g/ha [2] [%] | mortality at 500 g/ha [3] [%] | also measured
Cc1cc(OC2CCCC2)cc(C(=O)N[C@@H](C)c2ncnn2-c2ccc(C#N)cn2)c1 [Example I-4, N-{(1S)-1-[1-(5-Cyanopyridin-2-yl)-1H-1,2,4-triazol-5-yl]ethyl}-3-(cyclopentyloxy)-5-methylbenzamide] | 100 | 100 | 100 |  |  |  |  |  |  | pest or weed control at 160 µg/disc, 500 g/ha [1]: 100%; mortality at 100 g/ha [3]: 100%
Cc1cc(OC2COC2)cc(C(=O)N[C@@H](C)c2ncnn2-c2ccc(C#N)cn2)c1 [Example I-6, N-{(1S)-1-[1-(5-Cyanopyridin-2-yl)-1H-1,2,4-triazol-5-yl]ethyl}-3-methyl-5-(oxetan-3-yloxy)benzamide] | 100 | 100 | 100 | 90 |  |  |  |  |  | mortality at 500 g/ha [5]: 100%; pest or weed control at 160 µg/disc, 500 g/ha [1]: 100%; mortality at 100 ppm [6]: 100%; pest or weed control at 5 µg/cm2, 5 µg/cm2 [7]: 100%; mortality at 100 g/ha [3]: 100%
C[C@H](NC(=O)c1cc(Cl)cc(Oc2ccc(F)cc2)c1)c1ncnn1-c1ccc(C#N)cn1 [Example I-9] |  | 100 | 100 | 90 | 90 |  |  |  |  | 
C[C@H](NC(=O)c1cc(Br)cc(C(F)(F)c2ccc(F)cc2)c1)c1ncnn1-c1ccc(C#N)cn1 [Example I-25] |  | 100 |  | 100 | 90 | 100 |  |  |  | mortality at 100 ppm [6]: 90%
C[C@H](NC(=O)c1cc(Cl)cc(C(C)(C)C#N)c1)c1nc(C2CC2)nn1-c1ccc(C#N)cn1 [Example I-38] | 90 |  |  |  |  | 100 | 100 | 100 | 100 | mortality at 20 mg/m2 [10]: 80 to 100%
Cc1nc([C@H](C)NC(=O)c2cc(OC(F)(F)F)cc(C(C)(C)C#N)c2)n(-c2ncc(C#N)s2)n1 [Example I-51] |  |  |  |  |  | 100 | 100 | 100 | 100 | 
CCN(C)C(=O)c1ccc(-n2nc(C)nc2[C@H](C)NC(=O)c2cc(Cl)cc(C(C)(C)C#N)c2)nc1 [Example I-52, 6-[5-[(1S)-1-[[3-chloro-5-(1-cyano-1-methyl-ethyl)benzoyl]amino]ethyl]-3-methyl-1,2,4-triazol-1-yl]-N-ethyl-N-methyl-pyridine-3-carboxamide] |  |  |  | 90 | 100 | 100 |  | 100 |  | 
C[C@H](NC(=O)c1cc(OC(F)(F)F)cc(C(C)(C)C#N)c1)c1ncnn1-c1cc(C#N)ncn1 [Example I-66] |  |  |  |  |  | 100 | 100 | 100 | 100 | mortality at 100 g/ha [11]: 100%

From US12653190B2, “Heteroaryl-triazole compounds as pesticides” (Bayer Aktiengesellschaft, priority 2020, dated 2026)
